Test results as given in patent US5872107A, “Treatment of urogenital cancer with boron neutron capture therapy” (Emory University, priority 1997, dated 1999).
“And” between values parts separate entries of the source, which are not always exact repeats. Equal values may be shown once. “Also recorded” adds a separate entry of the source.

Legend:
[1] = Pharmacokinetics of CDU in plasma after intravenous administration of 25 mg/kg to rats; format: in vivo, Sprague-Dawley rats
Description: 5-Carboranyl-2'-deoxyuridine (CDU) was synthesized by the method of Yamamoto, et al. The chemical purity, confirmed by ^1 H NMR spectral and high-pressure liquid chromatography (HPLC) analysis, was greater than 98%. For intravenous administration, CDU was dissolved in dimethylsulfoxide (DMSO). Internal standard, progesterone, and β-glucuronidase were purchased from Sigma Chemical Company (St. Louis, Mo.). Methanol, HPLC grade, and all other chemicals, analytical grade, were obtained from J. T. Baker (Phillipsburg, N.J.). Partition coefficients were determined one hour after administration.
Five adult male Sprague-Dawley (Harlan Laboratories, Indianapolis, Ind.) rats weighing 303±8 g (mean±SD) were used for the pharmacokinetic study. Rats were housed in a 12 hour light/12 hour dark, constant temperature (22° C.) environment with free access to standard laboratory chow and water. Animals were acclimatized to this environment for one week before the experiment. External jugular vein cannulas were implanted under ketamine:acepromazine:xylazine (50:3.3:3.3 mg/kg) anesthesia the day before the experiment. Rats were fasted overnight, however, water was available ad libitum.
On the morning of the experiment, rats were placed in individual metabolism cages. CDU […]) was administered intravenously in 0.1 ml of DMSO to the rats over a one minute period. Blood samples (0.35 ml) were collected prior to and at […], 2, 3, 4, 5, 6, 7 and 8 hour after CDU administration from the cannula into heparinized polypropylene microcentrifuge tubes. Blood volume was replaced with an equal volume of normal saline. Blood samples were immediately centrifuged at 2000 g for 5 minutes and plasma was separated and frozen at -20° C. until analysis. Urine was collected for 24 hour following CDU administration. Urine volume was measured and samples were frozen at -20° C. until analysis.
(§1) Concentrations of CDU in plasma, brain, and urine were determined by HPLC. For the determination of CDU in brain, the brain tissue was homogenized in a 1:2 (g:ml) ratio with isotonic sodium phosphate buffer, pH 7.4. To 200 μl of plasma or brain homogenate in a glass test tube, 50 μl of internal standard (20 μg/ml progesterone) and 5 ml of methylene chloride was added. Tubes were shaken for 15 minutes at low speed on a shaker, centrifuged for 5 minutes at 2000 rpm, and the plasma layer was aspirated off using a vacuum system. The remaining methylene chloride was transferred to a glass culture tube and evaporated to dryness under a stream of nitrogen gas at ambient temperature. The residue was reconstituted with 250 μl of methanol and injected onto HPLC system.
Chromatography was performed on a Hypersil ODC column (5 μm particle size, 4.6×150 mm; Alltech Associates Inc., Deerfield, Ill.) with an online guard column and an isocratic mobile phase of 65% methanol in 10 mM monobasic potassium phosphate, pH 6.3 at a flow rate of 1.5 ml/min. Compounds were detected at a UV wavelength of 274 nm with a detector range setting of 0.005 absorbance units, full scale.
The retention times of CDU and internal standard were 4.7 and 8.6 min, respectively. Sample CDU concentrations were calculated from the slope of calibration plots of the peak area ratio of CDU:internal standard versus standard CDU concentrations. The slopes and intercepts were generated using weighted (1/x^2) least-squares regression analysis. Standard curves were linear in the range of 0.1 μg/ml to 50 μg/ml. The intra- and inter-day relative standard deviations over the range of standard concentrations in all biological media were less than 10%. The extraction recoveries of CDU and progesterone were 99% and 95%, respectively.
Area/moment analysis was used to calculate pharmacokinetic parameters of CDU. […]

[2] = Plasma protein binding of CDU by equilibrium dialysis; format: in vitro ADME, rat
Description: Protein binding was determined by equilibrium dialysis. Various amounts of CDU were added to drug free rat plasma to yield CDU concentrations ranging from 0.5 to 100 μg/ml. Plexiglass dialysis cells and dialysis membrane (Spectrapor II, Spectrum Medical Industries, Los Angeles, Calif.) were used. Plasma (0.8 ml) containing different concentrations of CDU was dialyzed against 0.8 ml of isotonic sodium phosphate buffer, pH 7.4, in a shaking water bath at 37° C. for 16 hours. The post-dialysis plasma and buffer volumes were measured and samples were frozen at -20° C. until analysis. The binding data was corrected for fluid shifts that occurred during dialysis. Experiments were performed in duplicate.
This concentration range encompassed those observed following intravenous administration of 25 mg/kg CDU to rats. Assuming that the lipophilic compound CDU is bound predominantly by hydrophobic interactions to albumin, the equilibrium association constant for the protein binding of CDU was approximately 4×10^4 M^-1.

[3] = Brain uptake of CDU after loading dose and three hour intravenous infusion; format: in vivo, Sprague-Dawley rats
Description: Two adult male sprague-dawley rats weighing 305 and 312 g were used to examine the brain uptake of CDU. A loading dose of 5 mg/kg CDU in […] of DMSO was administered intravenously over a one minute period followed by three hour infusion of CDU at the rate of 5 mg/h/kg (50 μl/h) using an infusion […]. At the end of infusion blood samples were collected and rats were sacrificed. The brains were dissected and frozen at -20° C. until analysis.
as §1

[4] = 25 mg/kg i.v., rats, total plasma concentrations, 25 mg/kg
[5] = 25 mg/kg i.v., individual rat, 25 mg/kg
[6] = 25 mg/kg i.v., individual rat, unbound
[7] = 25 mg/kg i.v., mean of five rats
[8] = 25 mg/kg i.v., mean of five rats, unbound
[9] = i.v. infusion to steady state, each of two rats, 5 mg/kg, 180 min

With 5-carboranyl-2'-deoxyuridine [CDU] the “decline of plasma concentrations (in words)” value ([1]; 25 mg/kg i.v., rats) was “declined in a biexponential fashion”, the “volume of distribution based on unbound CDU concentrations” value ([1]; 25 mg/kg i.v., rats) was 15.5 kg⁻¹ and the “clearance based on unbound plasma CDU concentrations (CLf)” value ([1]; 25 mg/kg i.v., rats, average) was 255.5 ± 74 mL/min/kg and 255 mL/min/kg. The terminal half-life ([1]; 25 mg/kg i.v., rats, mean±SD) was 1.26 ± 0.28 h, the “steady-state volume of distribution” value [1, 4] was 0.70 ± 0.23 kg⁻¹ and 0.7 kg⁻¹ and the total clearance [1, 4] was 11.5 ± 3.3 mL/min/kg and 11.5 mL/min/kg. For the same substance, the “AUC, individual rats” value [1, 5] was 32.39 mg h 1^-1 and 25.14 mg h 1^-1 and 44.68 mg h 1^-1 and 42.49 mg h 1^-1 and 47.28 mg h 1^-1, the “CLT, individual rats” value [1, 5] was 0.77 1 h^-1 kg^-1 and 0.99 1 h^-1 kg^-1 and 0.56 1 h^-1 kg^-1 and 0.59 1 h^-1 kg^-1 and 0.53 1 h^-1 kg^-1 and the “MRT, individual rats” value [1, 5] was 1.17 h and 0.51 h and 0.81 h and 1.64 h and 1.24 h. For the same substance, the “V33 (steady-state volume of distribution), individual rats” value [1, 5] was 0.90 1 kg^-1 and 0.51 1 kg^-1 and 0.45 1 kg^-1 and 0.97 1 kg^-1 and 0.65 1 kg^-1, the “t1/2, individual rats” value [1, 5] was 1.46 h and 1.20 h and 0.81 h and 1.54 h and 1.28 h and the “CLf, individual rats” value [1, 6] was 17.15 1 h^-1 kg^-1 and 22.33 1 h^-1 kg^-1 and 12.36 1 h^-1 kg^-1 and 13.07 1 h^-1 kg^-1 and 11.76 1 h^-1 kg^-1. The “Vss,f, individual rats” value [1, 6] was 20.02 1 kg^-1 and 11.29 1 kg^-1 and 10.09 1 kg^-1 and 21.56 1 kg^-1 and 14.53 1 kg^-1, the “AUC, mean” value [1, 7] was 38.39 mg h 1^-1 and the “MRT, mean” value [1, 7] was 1.07 h. The “V33 (steady-state volume of distribution), mean” value [1, 7] was 0.70 1 kg^-1, the “t1/2, mean” value [1, 7] was 1.26 h and the “CLf, mean” value [1, 8] was 15.33 1 h^-1 kg^-1. For the same substance, the “Vss,f, mean” value [1, 8] was 15.50 1 kg^-1, the “metabolic intrinsic clearance of free drug” value ([1]; estimated, unbound drug) was 333 mL/min/kg and the “concentration dependence of plasma protein binding (in words)” value ([2]; 0.5 μg/ml to 100 μg/ml) was “independent of the nucleoside concentration; also recorded: in a linear manner”. For the same substance, the “bound to plasma proteins” value ([2]; 0.5 μg/ml to 100 μg/ml, rat plasma, 960 min) was 95.5%, the “equilibrium association constant for the protein binding” value ([2]; assuming binding predominantly to albumin, 960 min) was “approximately 4×10^4 M^-1” and the “average fraction bound to the plasma proteins” value ([2]; rat plasma, 37° C., pH 7.4, 960 min) was 0.95±0.02. The “brain:unbound plasma CDU ratio” value ([3]; i.v. infusion to steady state, each of two rats) was 10.26 and 7.87, the “brain CDU concentration” value [3, 9] was 2.77 µg/mL and 1.81 µg/mL and the “brain:total plasma CDU concentration ratio” value [3, 9] was 0.47 and 0.36. For the same substance, the “total plasma CDU concentration” value [3, 9] was 5.92 µg/mL and 5.01 µg/mL, the “brain concentrations as % of total plasma CDU concentrations” value ([3]; i.v. infusion to steady state, two rats, 5 mg/kg, 180 min) was 36 to 47% and the “brain:plasma ratio based on unbound vs total plasma concentrations” value ([3]; unbound compared to total) was 20 fold.
